Data taken from PubChem BioAssay (NCI).
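Step 1: Grow cells in 96-well plates. Step 2: Expose to compound for 48 hours at 5 concentrations. Step 3: Interpolate endpoints linearly; if unreached, use highest concentration. The concentration for full growth arrest is given as TGI.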

Key:
Assay in all cases: growth of human tumour cells (NCI), 48 h
[1] = system: NCI-H522 lung
[2] = system: SW-620 colon
[3] = system: COLO 205 colon
[4] = system: HT29 colon
[5] = system: MDA-MB-435
[6] = system: A549 NSCLC
[7] = system: SF-539 CNS
[8] = system: CCRF-CEM leukemia
[9] = system: SK-MEL-2 melanoma
[10] = system: OVCAR-5 ovarian
[11] = system: RXF 393 renal
[12] = system: NCI-H23 lung
[13] = system: U251 CNS
[14] = system: ACHN renal
[15] = system: SN12C renal
[16] = system: CAKI-1 renal
[17] = system: IGROV1 ovarian
[18] = system: DU-145 prostate
[19] = system: MDA-MB-231 breast
[20] = system: MDA-N
[21] = system: T-47D breast
[22] = system: K-562 leukemia
[23] = system: A498 renal
[24] = system: NCI-H226 lung
[25] = system: SK-OV-3 ovarian
[26] = system: 786-0 renal
[27] = system: MCF7 breast
[28] = system: BT-549 breast
[29] = system: SNB-75 CNS
[30] = system: PC-3 prostate
[31] = system: NCI/ADR-RES ovarian
[32] = system: UACC-257 melanoma
[33] = system: UACC-62 melanoma
[34] = system: NCI-H460 lung
[35] = system: SF-295 CNS
[36] = system: KM12 colon
[37] = system: OVCAR-4 ovarian
[38] = system: RPMI-8226 leukemia
[39] = system: UO-31 renal
[40] = system: HL-60(TB) leukemia
[41] = system: MOLT-4 leukemia
[42] = system: SR leukemia
[43] = system: M14 melanoma
[44] = system: EKVX NSCLC
[45] = system: HOP-62 NSCLC
[46] = system: LOX IMVI melanoma
[47] = system: SK-MEL-5 melanoma
[48] = system: TK-10 renal
[49] = system: OVCAR-3 ovarian
[50] = system: MALME-3M melanoma
[51] = system: HCT-15 colon
[52] = system: HOP-92 NSCLC
[53] = system: OVCAR-8 ovarian
[54] = system: HCC-2998 colon
[55] = system: HCT-116 colon
[56] = system: HS 578T breast
[57] = system: SNB-19 CNS
[58] = system: SF-268 CNS
[59] = system: SK-MEL-28 melanoma

CCCCc1ccc(Nc2nc(=S)c3ncn(COCCO)c3[nH]2)cc1
TGI [1]: 51.3 µM
TGI [2]: > 100 µM
TGI [3]: 44.5 µM
TGI [4]: > 100 µM
TGI [5]: > 100 µM
TGI [6]: > 100 µM
TGI [7]: > 100 µM
TGI [8]: 59.7 µM
TGI [9]: 90.4 µM
TGI [10]: > 100 µM
TGI [11]: > 100 µM
TGI [12]: > 100 µM
TGI [13]: > 100 µM
TGI [14]: > 100 µM
TGI [15]: > 100 µM
TGI [16]: > 100 µM
TGI [17]: > 100 µM
TGI [18]: > 100 µM
TGI [19]: 57.6 µM
TGI [20]: > 100 µM
TGI [21]: 46.8 µM
TGI [22]: 51.7 µM
TGI [23]: > 100 µM
TGI [24]: > 100 µM
TGI [25]: > 100 µM
TGI [26]: > 100 µM
TGI [27]: 54.1 µM
TGI [28]: > 100 µM
TGI [29]: 97.9 µM
TGI [30]: > 100 µM
TGI [31]: > 100 µM
TGI [32]: > 100 µM
TGI [33]: > 100 µM
TGI [34]: > 100 µM
TGI [35]: > 100 µM
TGI [36]: > 100 µM
TGI [37]: > 100 µM
TGI [38]: 54 µM
TGI [39]: > 100 µM
TGI [40]: 54.4 µM
TGI [41]: > 100 µM
TGI [42]: 66.7 µM
TGI [43]: > 100 µM
TGI [44]: > 100 µM
TGI [45]: > 100 µM
TGI [46]: 76.1 µM
TGI [47]: > 100 µM
TGI [48]: > 100 µM
TGI [49]: 74.4 µM
TGI [50]: 47.1 µM
TGI [51]: > 100 µM
TGI [52]: 63.4 µM
TGI [53]: > 100 µM
TGI [54]: > 100 µM
TGI [55]: > 100 µM
TGI [56]: > 100 µM
TGI [57]: > 100 µM

COc1ccc(OC)c(N2C(=O)/C(=C\c3ccccc3)SC2c2cc(OC)c(OC)c(OC)c2)c1 (stereo unspecified)
TGI [1]: 74.9 µM
TGI [2]: > 100 µM
TGI [3]: > 100 µM
TGI [4]: > 100 µM
TGI [5]: > 75 µM
TGI [6]: > 100 µM
TGI [8]: > 100 µM
TGI [9]: > 100 µM
TGI [10]: > 100 µM
TGI [11]: > 31.4 µM
TGI [12]: > 100 µM
TGI [13]: > 100 µM
TGI [14]: 6.85 µM
TGI [15]: > 100 µM
TGI [16]: > 100 µM
TGI [17]: > 100 µM
TGI [18]: > 100 µM
TGI [19]: > 100 µM
TGI [20]: 52.1 µM
TGI [21]: > 100 µM
TGI [22]: > 100 µM
TGI [23]: > 100 µM
TGI [24]: > 100 µM
TGI [25]: > 100 µM
TGI [26]: > 100 µM
TGI [27]: > 42.7 µM
TGI [28]: > 100 µM
TGI [29]: > 100 µM
TGI [30]: > 100 µM
TGI [31]: > 100 µM
TGI [58]: > 100 µM
TGI [32]: > 100 µM
TGI [35]: > 100 µM
TGI [36]: > 100 µM
TGI [37]: > 100 µM
TGI [38]: > 100 µM
TGI [39]: > 100 µM
TGI [40]: > 100 µM
TGI [41]: > 100 µM
TGI [42]: > 100 µM
TGI [43]: > 100 µM
TGI [59]: > 100 µM
TGI [44]: > 100 µM
TGI [45]: > 100 µM
TGI [46]: > 100 µM
TGI [47]: > 100 µM
TGI [48]: > 100 µM
TGI [49]: > 100 µM
TGI [50]: > 100 µM
TGI [51]: > 100 µM
TGI [52]: > 100 µM
TGI [53]: > 100 µM
TGI [54]: > 100 µM
TGI [55]: > 100 µM
TGI [56]: > 100 µM
TGI [57]: > 100 µM

O=c1[nH]nc(Cc2ccccc2)n1/N=C\CC/C=N\n1c(Cc2ccccc2)n[nH]c1=O
TGI [1]: > 100 µM
TGI [2]: > 100 µM
TGI [3]: > 100 µM
TGI [4]: 83.3 µM
TGI [5]: > 100 µM
TGI [6]: > 100 µM
TGI [7]: 66.3 µM
TGI [8]: > 100 µM
TGI [9]: 90.3 µM
TGI [10]: > 100 µM
TGI [11]: 72.5 µM
TGI [12]: 66.6 µM
TGI [13]: > 100 µM
TGI [14]: > 100 µM
TGI [15]: > 100 µM
TGI [16]: > 100 µM
TGI [17]: 40.7 µM
TGI [18]: > 100 µM
TGI [19]: > 100 µM
TGI [20]: > 100 µM
TGI [21]: > 100 µM
TGI [22]: > 100 µM
TGI [23]: > 100 µM
TGI [24]: 83.1 µM
TGI [25]: > 100 µM
TGI [26]: > 100 µM
TGI [27]: > 100 µM
TGI [28]: > 100 µM
TGI [29]: 58.7 µM
TGI [30]: > 100 µM
TGI [31]: 41.5 µM
TGI [58]: 77.7 µM
TGI [32]: > 100 µM
TGI [33]: 46.6 µM
TGI [35]: > 100 µM
TGI [36]: > 100 µM
TGI [37]: > 100 µM
TGI [38]: 80.9 µM
TGI [39]: > 100 µM
TGI [40]: > 100 µM
TGI [41]: > 100 µM
TGI [42]: > 100 µM
TGI [43]: > 100 µM
TGI [59]: > 100 µM
TGI [44]: > 100 µM
TGI [45]: 88.4 µM
TGI [46]: > 100 µM
TGI [47]: > 100 µM
TGI [48]: > 100 µM
TGI [49]: > 100 µM
TGI [50]: 77.7 µM
TGI [51]: 75 µM
TGI [52]: > 100 µM
TGI [53]: 58.9 µM
TGI [54]: > 100 µM
TGI [55]: 48.7 µM
TGI [56]: 53.1 µM
TGI [57]: > 100 µM
